Measurements as given in paper PMC5218480 (PLoS ONE, 2017).

Tested on: MV-4-11 cells
Assay: Gene expression microarray analysis (Affymetrix PrimeView) and GSEA
Assay type: cell-based, human
Design: RFU PODN (11730768_x_at) / Fold change /veh PODN (11730768_x_at) / RFU LINC00158 (11744669_a_at) / Fold change /veh LINC00158 (11744669_a_at) / RFU DUSP10 (11751237_a_at) / Fold change /veh DUSP10 (11751237_a_at) / RFU ID3 (11757404_x_at) / Fold change /veh ID3 (11757404_x_at) / RFU PLEKHG5 (11737974_s_at) / Fold change /veh PLEKHG5 (11737974_s_at) / RFU LRRC4B (11730491_at) / Fold change /veh LRRC4B (11730491_at) / RFU GIMAP4 (11747438_a_at) / Fold change /veh GIMAP4 (11747438_a_at) / RFU KRT8 (11758183_x_at) / Fold change /veh KRT8 (11758183_x_at) / RFU CNN1 (11734310_a_at) / Fold change /veh CNN1 (11734310_a_at) / RFU VPS37D (11726825_at) / Fold change /veh VPS37D (11726825_at) / RFU C10orf10 (11716522_x_at) / Fold change /veh C10orf10 (11716522_x_at) / RFU KIR2DL2 /// KIR2DL4 /// KIR2DL5A /// KIR2DL5B /// KIR2DS1 /// KIR2DS2 /// KIR2DS3 /// KIR2DS4 /// KIR3DL3 /// KIR3DL3 /// KIR3DS1 (11738374_at) / Fold change /veh KIR2DL2 /// KIR2DL4 /// KIR2DL5A /// KIR2DL5B /// KIR2DS1 /// KIR2DS2 /// KIR2DS3 /// KIR2DS4 /// KIR3DL3 /// KIR3DL3 /// KIR3DS1 (11738374_at) / RFU C1QL1 (11718748_at) / Fold change /veh C1QL1 (11718748_at) / RFU TMPRSS4 (11747572_a_at) / Fold change /veh TMPRSS4 (11747572_a_at) / RFU HAMP (11756126_x_at) / Fold change /veh HAMP (11756126_x_at) / RFU RNFT2 (11725882_a_at) / Fold change /veh RNFT2 (11725882_a_at) / RFU NR4A2 (11747474_a_at) / Fold change /veh NR4A2 (11747474_a_at) / RFU ABCC12 (11746883_a_at) / Fold change /veh ABCC12 (11746883_a_at) / RFU TMEM136 (11760407_x_at) / Fold change /veh TMEM136 (11760407_x_at) / RFU CLDN22 /// WWC2 (11732394_at) / Fold change /veh CLDN22 /// WWC2 (11732394_at) / RFU HLA-DPB1 (11760878_x_at) / Fold change /veh HLA-DPB1 (11760878_x_at) / RFU SPINT1 (11716480_a_at) / Fold change /veh SPINT1 (11716480_a_at) / RFU GAP43 (11754022_s_at) / Fold change /veh GAP43 (11754022_s_at) / RFU A4GNT (11735810_at) / Fold change /veh A4GNT (11735810_at) / RFU PRB3 (11715151_x_at) / Fold change /veh PRB3 (11715151_x_at) / RFU TUBB4B (11761932_at) / Fold change /veh TUBB4B (11761932_at) / RFU CAPN14 (11732068_a_at) / Fold change /veh CAPN14 (11732068_a_at) / RFU TMCC2 (11721928_a_at) / Fold change /veh TMCC2 (11721928_a_at) / RFU IRGQ (11745062_a_at) / Fold change /veh IRGQ (11745062_a_at) / RFU FAM174B (11720279_a_at) / Fold change /veh FAM174B (11720279_a_at) / RFU TMPRSS4 (11748680_a_at) / Fold change /veh TMPRSS4 (11748680_a_at) / RFU FAM212B (11763350_a_at) / Fold change /veh FAM212B (11763350_a_at) / RFU PLEKHG5 (11743358_a_at) / Fold change /veh PLEKHG5 (11743358_a_at) / RFU ZSCAN30 (11745921_a_at) / Fold change /veh ZSCAN30 (11745921_a_at) / RFU CMKLR1 (11741424_a_at) / Fold change /veh CMKLR1 (11741424_a_at) / RFU LOC101060620 /// MAPK8IP1 (11723275_at) / Fold change /veh LOC101060620 /// MAPK8IP1 (11723275_at) / RFU SPTSSB (11747773_x_at) / Fold change /veh SPTSSB (11747773_x_at) / RFU PRSS12 (11739890_at) / Fold change /veh PRSS12 (11739890_at) / RFU BIN1 (11741810_x_at) / Fold change /veh BIN1 (11741810_x_at) / RFU WNT11 (11732464_a_at) / Fold change /veh WNT11 (11732464_a_at) / RFU C10orf10 (11716521_a_at) / Fold change /veh C10orf10 (11716521_a_at) / RFU C5orf56 (11738089_at) / Fold change /veh C5orf56 (11738089_at) / RFU CYB561 (11721691_x_at) / Fold change /veh CYB561 (11721691_x_at) / RFU ANKRD19P (11752326_a_at) / Fold change /veh ANKRD19P (11752326_a_at) / RFU OR2T12 /// OR2T33 /// OR2T8 (11738714_s_at) / Fold change /veh OR2T12 /// OR2T33 /// OR2T8 (11738714_s_at) / RFU VCAN (11748164_a_at) / Fold change /veh VCAN (11748164_a_at) / RFU JSRP1 (11732532_at) / Fold change /veh JSRP1 (11732532_at) / RFU KRTAP10-11 (11738290_x_at) / Fold change /veh KRTAP10-11 (11738290_x_at) / RFU MYO3A (11730013_a_at) / Fold change /veh MYO3A (11730013_a_at) / RFU EBF3 (11725865_a_at) / Fold change /veh EBF3 (11725865_a_at) / RFU CAMK2N1 (11719241_x_at) / Fold change /veh CAMK2N1 (11719241_x_at) / RFU C5orf56 (11738088_a_at) / Fold change /veh C5orf56 (11738088_a_at) / RFU OLFML3 (11715873_a_at) / Fold change /veh OLFML3 (11715873_a_at) / RFU LOC100653217 /// NTM (11731650_a_at) / Fold change /veh LOC100653217 /// NTM (11731650_a_at) / RFU MAPK11 (11762145_a_at) / Fold change /veh MAPK11 (11762145_a_at) / RFU FIZ1 (11724087_x_at) / Fold change /veh FIZ1 (11724087_x_at) / RFU OASL (11726364_x_at) / Fold change /veh OASL (11726364_x_at) / RFU SOX15 (11748057_x_at) / Fold change /veh SOX15 (11748057_x_at) / RFU CD79A (11719716_a_at) / Fold change /veh CD79A (11719716_a_at) / RFU HIST1H1D (11736915_at) / Fold change /veh HIST1H1D (11736915_at) / RFU CASKIN2 (11723855_a_at) / Fold change /veh CASKIN2 (11723855_a_at) / RFU LOC730098 (11760151_x_at) / Fold change /veh LOC730098 (11760151_x_at) / RFU OR4N2 (11742367_at) / Fold change /veh OR4N2 (11742367_at) / RFU PRRT2 (11749266_a_at) / Fold change /veh PRRT2 (11749266_a_at) / RFU SNX32 (11753110_a_at) / Fold change /veh SNX32 (11753110_a_at) / RFU CDHR5 (11726645_a_at) / Fold change /veh CDHR5 (11726645_a_at) / RFU RCAN1 (11760418_a_at) / Fold change /veh RCAN1 (11760418_a_at) / RFU FAM167A (11723789_a_at) / Fold change /veh FAM167A (11723789_a_at) / RFU FAM26E (11764081_at) / Fold change /veh FAM26E (11764081_at) / RFU ISYNA1 (11749810_s_at) / Fold change /veh ISYNA1 (11749810_s_at) / RFU ACY1 (11761880_at) / Fold change /veh ACY1 (11761880_at) / RFU 11764098_at / Fold change /veh 11764098_at / RFU SAMD14 (11745864_x_at) / Fold change /veh SAMD14 (11745864_x_at) / RFU NPB (11741838_a_at) / Fold change /veh NPB (11741838_a_at) / RFU TMPRSS6 (11731388_a_at) / Fold change /veh TMPRSS6 (11731388_a_at) / RFU KRTAP10-2 (11738614_at) / Fold change /veh KRTAP10-2 (11738614_at) / RFU ARHGAP8 /// PRR5-ARHGAP8 (11727945_x_at) / Fold change /veh ARHGAP8 /// PRR5-ARHGAP8 (11727945_x_at) / RFU KRTAP5-7 /// NADSYN1 (11734609_at) / Fold change /veh KRTAP5-7 /// NADSYN1 (11734609_at) / RFU RASL12 (11751679_a_at) / Fold change /veh RASL12 (11751679_a_at) / RFU CDKN2B (11736163_a_at) / Fold change /veh CDKN2B (11736163_a_at) / RFU PRF1 (11729649_at) / Fold change /veh PRF1 (11729649_at) / RFU, ZNF638 /// ZNF638-IT1 / Fold change vs veh, ZNF638 /// ZNF638-IT1 / RFU, PANK3 / Fold change vs veh, PANK3 / RFU, SH3YL1 / Fold change vs veh, SH3YL1 / RFU, ZEB2 / Fold change vs veh, ZEB2 / RFU, NRIP1 / Fold change vs veh, NRIP1 / RFU, PTTG1IP / Fold change vs veh, PTTG1IP / RFU, CAPN2 / Fold change vs veh, CAPN2 / RFU, MED14 / Fold change vs veh, MED14 / RFU, SNORA58 / Fold change vs veh, SNORA58 / RFU, C1orf63 / Fold change vs veh, C1orf63 / RFU, LRRFIP1 / Fold change vs veh, LRRFIP1 / RFU, NDUFAF7 / Fold change vs veh, NDUFAF7 / RFU, SLC12A2 / Fold change vs veh, SLC12A2 / RFU, IBTK / Fold change vs veh, IBTK / RFU, ESF1 / Fold change vs veh, ESF1 / Fold change vs veh, TMEM50B / RFU, TAOK1 / Fold change vs veh, TAOK1 / RFU, ACBD3 / Fold change vs veh, ACBD3 / RFU, TMA16 / Fold change vs veh, TMA16 / RFU, RWDD3 / Fold change vs veh, RWDD3 / RFU, BCAT1 / Fold change vs veh, BCAT1 / RFU, EDEM3 / Fold change vs veh, EDEM3 / RFU, TMEM33 / Fold change vs veh, TMEM33 / RFU, WDR75 / Fold change vs veh, WDR75 / RFU, AHCTF1 / Fold change vs veh, AHCTF1 / RFU, TFRC / Fold change vs veh, TFRC / RFU, ZDHHC17 / Fold change vs veh, ZDHHC17 / RFU, NOM1 / Fold change vs veh, NOM1 / RFU, ARL8B / Fold change vs veh, ARL8B / RFU, ZBTB11 / Fold change vs veh, ZBTB11 / RFU, TAMM41 / Fold change vs veh, TAMM41 / RFU, KIAA1704 /// LOC100996395 / Fold change vs veh, KIAA1704 /// LOC100996395 / RFU, ING1 / Fold change vs veh, ING1 / RFU, TRMT61B / Fold change vs veh, TRMT61B / RFU, FUBP3 / Fold change vs veh, FUBP3 / RFU, TP53 / Fold change vs veh, TP53 / RFU, TNKS2 / Fold change vs veh, TNKS2 / RFU, ZFP14 / Fold change vs veh, ZFP14 / RFU, ACTR2 / Fold change vs veh, ACTR2 / RFU, PPP3R1 / Fold change vs veh, PPP3R1 / RFU, PIK3R1 / Fold change vs veh, PIK3R1 / RFU, HNRNPA1 / Fold change vs veh, HNRNPA1 / RFU, RNF170 / Fold change vs veh, RNF170 / RFU, ZNF28 / Fold change vs veh, ZNF28 / RFU, RNGTT / Fold change vs veh, RNGTT / RFU, OGT / Fold change vs veh, OGT / RFU, BRD1 / Fold change vs veh, BRD1 / RFU, MARS / Fold change vs veh, MARS / RFU, ZNF655 / Fold change vs veh, ZNF655 / RFU, FAHD1 / Fold change vs veh, FAHD1 / RFU, BDP1 / Fold change vs veh, BDP1 / RFU, LRRCC1 / Fold change vs veh, LRRCC1 / RFU, ARID1A / Fold change vs veh, ARID1A / RFU, ZNF146 / Fold change vs veh, ZNF146 / RFU, ZNF330 / Fold change vs veh, ZNF330 / RFU, GPN3 / Fold change vs veh, GPN3 / RFU, C9orf123 / Fold change vs veh, C9orf123 / RFU, N4BP2L2 / Fold change vs veh, N4BP2L2 / RFU, ARFIP1 / Fold change vs veh, ARFIP1 / RFU, FAM179B / Fold change vs veh, FAM179B / RFU, BCL10 / Fold change vs veh, BCL10 / RFU, UHRF1BP1L / Fold change vs veh, UHRF1BP1L / RFU, BET1 / Fold change vs veh, BET1 / RFU, CNOT2 / Fold change vs veh, CNOT2 / RFU, ZNF268 / Fold change vs veh, ZNF268 / Fold change vs veh, ZNF507 / RFU, DGCR2 / Fold change vs veh, DGCR2 / RFU, WDSUB1 / Fold change vs veh, WDSUB1 / Fold change vs veh, HSP90B1 /// MIR3652 / RFU, ADSS / Fold change vs veh, ADSS / RFU, GK / Fold change vs veh, GK / RFU, ZNF148 / Fold change vs veh, ZNF148 / RFU, TAF9 / Fold change vs veh, TAF9 / RFU, SLC1A5 / Fold change vs veh, SLC1A5 / RFU, SLMO2 / Fold change vs veh, SLMO2 / RFU, ABCC4 / Fold change vs veh, ABCC4 / RFU, LOC101060439 /// RAP1B / Fold change vs veh, LOC101060439 /// RAP1B / RFU, RFX7 / Fold change vs veh, RFX7 / RFU, GTPBP10 / Fold change vs veh, GTPBP10 / RFU, CNEP1R1 / Fold change vs veh, CNEP1R1 / RFU, BIVM-ERCC5 /// ERCC5 / Fold change vs veh, BIVM-ERCC5 /// ERCC5 / RFU, ILF3 / Fold change vs veh, ILF3 / RFU 11762660_at / Fold change /veh 11762660_at / RFU VCAN (11757783_s_at) / Fold change /veh VCAN (11757783_s_at) / RFU DDX43 (11728927_at) / Fold change /veh DDX43 (11728927_at) / RFU KRT8 (11758188_x_at) / Fold change /veh KRT8 (11758188_x_at) / RFU NKD1 (11759106_at) / Fold change /veh NKD1 (11759106_at) / RFU SRD5A1 (11742802_a_at) / Fold change /veh SRD5A1 (11742802_a_at) / RFU TPSAB1 /// TPSB2 (11721975_s_at) / Fold change /veh TPSAB1 /// TPSB2 (11721975_s_at) / RFU GSTM3 (11746129_a_at) / Fold change /veh GSTM3 (11746129_a_at) / RFU IL23R (11737362_x_at) / Fold change /veh IL23R (11737362_x_at) / RFU TMEM51 (11727254_a_at) / Fold change /veh TMEM51 (11727254_a_at) / RFU PIWIL2 (11732686_x_at) / Fold change /veh PIWIL2 (11732686_x_at) / RFU ORM1 (11744905_x_at) / Fold change /veh ORM1 (11744905_x_at) / RFU CCDC152 (11743942_at) / Fold change /veh CCDC152 (11743942_at) / RFU ECM1 (11717891_a_at) / Fold change /veh ECM1 (11717891_a_at) / RFU IL23R (11748794_a_at) / Fold change /veh IL23R (11748794_a_at) / RFU TNFAIP8L3 (11732012_x_at) / Fold change /veh TNFAIP8L3 (11732012_x_at) / RFU MBOAT4 (11741988_at) / Fold change /veh MBOAT4 (11741988_at) / RFU 11764193_at / Fold change /veh 11764193_at / RFU TMEM53 (11763286_at) / Fold change /veh TMEM53 (11763286_at) / RFU MAGEB2 (11727129_at) / Fold change /veh MAGEB2 (11727129_at) / RFU TMEM200A (11744735_a_at) / Fold change /veh TMEM200A (11744735_a_at) / RFU CCDC152 (11751479_a_at) / Fold change /veh CCDC152 (11751479_a_at) / RFU FAM211A (11726209_a_at) / Fold change /veh FAM211A (11726209_a_at) / RFU RGS16 (11746705_a_at) / Fold change /veh RGS16 (11746705_a_at) / RFU VCAN (11755009_s_at) / Fold change /veh VCAN (11755009_s_at) / RFU RHOB (11743442_s_at) / Fold change /veh RHOB (11743442_s_at) / RFU RGS16 (11720943_a_at) / Fold change /veh RGS16 (11720943_a_at) / RFU RGS16 (11720944_at) / Fold change /veh RGS16 (11720944_at) / RFU, VPS4B / Fold change vs veh, VPS4B / RFU, CREB1 / Fold change vs veh, CREB1 / RFU, DNAJC13 / Fold change vs veh, DNAJC13 / RFU, GNAQ / Fold change vs veh, GNAQ / RFU, CDK5R1 / Fold change vs veh, CDK5R1 / RFU, ZRANB3 / Fold change vs veh, ZRANB3 / RFU, CUL4A / Fold change vs veh, CUL4A / RFU, CCNY / Fold change vs veh, CCNY / RFU, UFL1 / Fold change vs veh, UFL1 / RFU, COG3 / Fold change vs veh, COG3 / RFU, DIAPH2 / Fold change vs veh, DIAPH2 / RFU, SKA2 / Fold change vs veh, SKA2 / RFU, AFF3 / Fold change vs veh, AFF3 / RFU, LMF1 / Fold change vs veh, LMF1 / RFU, IPO11 / Fold change vs veh, IPO11 / RFU, DFFB / Fold change vs veh, DFFB / RFU, FOXP1 / Fold change vs veh, FOXP1 / RFU, CARD8 / Fold change vs veh, CARD8 / RFU, STRN3 / Fold change vs veh, STRN3 / RFU, ADK / Fold change vs veh, ADK / RFU, RASSF2 / Fold change vs veh, RASSF2 / RFU, WIPF1 / Fold change vs veh, WIPF1 / RFU, LARP1B / Fold change vs veh, LARP1B / RFU, RASA1 / Fold change vs veh, RASA1 / RFU, RB1 / Fold change vs veh, RB1 / RFU, PPFIA1 / Fold change vs veh, PPFIA1 / RFU, MAT2A / Fold change vs veh, MAT2A / RFU, CCT5 / Fold change vs veh, CCT5 / RFU, WDR92 / Fold change vs veh, WDR92 / RFU, CUX1 / Fold change vs veh, CUX1 / RFU, TTC7A / Fold change vs veh, TTC7A / RFU, TMEM135 / Fold change vs veh, TMEM135 / RFU, DEPTOR / Fold change vs veh, DEPTOR / RFU, CPM / Fold change vs veh, CPM / RFU, DNAJB6 / Fold change vs veh, DNAJB6 / RFU, CACNA2D3 / Fold change vs veh, CACNA2D3 / RFU, DTX4 / Fold change vs veh, DTX4 / RFU, TFCP2 / Fold change vs veh, TFCP2 / RFU, GMCL1 /// GMCL1P1 / Fold change vs veh, GMCL1 /// GMCL1P1 / RFU, AEBP2 / Fold change vs veh, AEBP2 / RFU, SNHG1 /// SNORD22 /// SNORD25 /// SNORD26 /// SNORD27 /// SNORD28 /// SNORD29 /// SNORD31 / Fold change vs veh, SNHG1 /// SNORD22 /// SNORD25 /// SNORD26 /// SNORD27 /// SNORD28 /// SNORD29 /// SNORD31 / Fold change (Aza/veh), C12orf56 (ProbeSet 11735607_a_at) / Fold change (ACY-1035/veh), C12orf56 (ProbeSet 11735607_a_at) / Fold change (Aza/veh), FGFR1OP (ProbeSet 11751329_s_at) / Fold change (ACY-1035/veh), FGFR1OP (ProbeSet 11751329_s_at) / Fold change (Aza/veh), VPS36 (ProbeSet 11739960_a_at) / Fold change (ACY-1035/veh), VPS36 (ProbeSet 11739960_a_at) / RFU SYPL1 (11715823_x_at) / Fold change /veh SYPL1 (11715823_x_at) / RFU IGFBP7 (11715501_s_at) / Fold change /veh IGFBP7 (11715501_s_at) / RFU REEP3 (11722064_at) / Fold change /veh REEP3 (11722064_at) / RFU IGLL1 (11728026_x_at) / Fold change /veh IGLL1 (11728026_x_at): dose or concentration left out as unconfirmed
Settings: MV-4-11 cells, 48 hours

Nc1ccc(-c2cccs2)cc1NC(=O)c1ccc2c(c1)cc(C1CC1)n2CCN1CCOCC1 [ACY-1035]
RFU PRRT2 (11749266_a_at): 47.30 RFU
